Laboratory results published in patent US20120065210A1, “SUBSTITUTED HEXAHYDROPYRROLO[1,2-C]IMIDAZOLONES” (priority 2010, published 2012).

These molecules were tested against interaction between p53 and MDM2 proteins (recombinant GST-tagged MDM2, p53 peptide) (Homo sapiens, UniProt Q00987) (assay: HTRF assay of inhibition of the p53-MDM2 interaction (GST-MDM2 / biotinylated p53 peptide)). Details: bsa: 0.02%.
Format: binding
Description: The ability of the compounds to inhibit the interaction between p53 and MDM2 proteins was measured by an HTRF (homogeneous time-resolved fluorescence) assay in which recombinant GST-tagged MDM2 binds to a peptide that resembles the MDM2-interacting region of p53. Binding of GST-MDM2 protein and p53-peptide (biotinylated on its N-terminal end) is registered by the FRET (fluorescence resonance energy transfer) between Europium (Eu)-labeled anti-GST antibody and streptavidin-conjugated Allophycocyanin (APC).
Add 10 uL diluted compounds (1:5 dilution in reaction buffer) to each well, mix by shaking Add 20 uL biotinylated p53 peptide (180 nM working solution) in reaction buffer to each well and mix on shaker. Incubate at 37° C. for 1 h. Add 20 uL streptavidin-APC and Eu-anti-GST antibody mixture (6 nM Eu-anti-GST and 60 nM streptavidin-APC working solution) in TBS buffer with 0.2% BSA, shake at room temperature for 30 minutes and read using a TRF-capable plate reader at
665 and 615 nm (Victor 5, Perkin ElmerWallac), If not specified, the reagents were purchased from Sigma Chemical Co.

Chain of interaction between p53 and MDM2 proteins (recombinant GST-tagged MDM2, p53 peptide) (Q00987 whole entry): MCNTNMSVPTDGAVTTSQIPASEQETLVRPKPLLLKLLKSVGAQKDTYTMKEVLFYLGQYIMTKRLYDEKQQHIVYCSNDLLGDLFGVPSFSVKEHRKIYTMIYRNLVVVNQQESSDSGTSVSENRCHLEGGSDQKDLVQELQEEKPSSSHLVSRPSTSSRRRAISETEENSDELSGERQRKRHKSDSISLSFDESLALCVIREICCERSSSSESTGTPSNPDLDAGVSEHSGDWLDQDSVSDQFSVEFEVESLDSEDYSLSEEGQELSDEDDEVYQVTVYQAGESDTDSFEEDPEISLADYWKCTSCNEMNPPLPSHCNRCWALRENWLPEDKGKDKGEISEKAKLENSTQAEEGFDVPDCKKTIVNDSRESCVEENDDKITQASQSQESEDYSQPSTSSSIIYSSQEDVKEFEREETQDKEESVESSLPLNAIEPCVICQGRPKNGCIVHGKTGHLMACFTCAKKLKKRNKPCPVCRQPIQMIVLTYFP

Compound | IC50 [nM]
CC(C)(C)C[C@@H]1N2CN(c3ccc(C(=O)O)cc3)C(=O)[C@H]2[C@H](c2cccc(Cl)c2F)[C@@]1(C#N)c1ccc(Cl)cc1F [Example 2, 4-[(5S,6R,7S,7aR)-7-(3-chloro-2-fluoro-phenyl)-6-(4-chloro-2-fluoro-phenyl)-6-cyano-5-(2,2-dimethyl-propyl)-1-oxo-tetrahydro-pyrrolo[1,2-c]imidazol-2-yl]-benzoic acid] | 8
COc1cc(C(=O)O)ccc1N1CN2[C@@H](CC(C)(C)C)[C@](C#N)(c3ccc(Cl)cc3F)[C@@H](c3cccc(Cl)c3F)[C@@H]2C1=O [Example 3, 4-[(5S,6R,7S,7aR)-7-(3-chloro-2-fluoro-phenyl)-6-(4-chloro-2-fluoro-phenyl)-6-cyano-5-(2,2-dimethyl-propyl)-1-oxo-tetrahydro-pyrrolo[1,2-c]imidazol-2-yl]-3-methoxy-benzoic acid] | 13
CC(C)(C)C[C@@H]1N2CN(CC(=O)O)C(=O)[C@H]2[C@H](c2cccc(Cl)c2F)[C@@]1(C#N)c1ccc(Cl)cc1F [Example 4, [(5S,6R,7S,7aR)-7-(3-chloro-2-fluoro-phenyl)-6-(4-chloro-2-fluoro-phenyl)-6-cyano-5-(2,2-dimethyl-propyl)-1-oxo-tetrahydro-pyrrolo[1,2-c]imidazol-2-yl]-acetic acid] | 10
COc1cc(N2CN3[C@@H](CC(C)(C)C)[C@](C#N)(c4ccc(Cl)cc4F)[C@@H](c4cccc(Cl)c4F)[C@@H]3C2=O)ccc1C(=O)O [Example 1, 4-[(5S,6R,7S,7aR)-7-(3-chloro-2-fluoro-phenyl)-6-(4-chloro-2-fluoro-phenyl)-6-cyano-5-(2,2-dimethyl-propyl)-1-oxo-tetrahydro-pyrrolo[1,2-c]imidazol-2-yl]-2-methoxy-benzoic acid] | 8

Continued, values first:

IC50 [nM] | Compound
9 | C=CCC[C@@H]1N(c2ccc(C(=O)O)c(OC)c2)C(=O)[C@H]2[C@H](c3cccc(Cl)c3F)[C@@](C#N)(c3ccc(Cl)cc3F)[C@H](CC(C)(C)C)N12 [Example 41, 4-[(3S,5S,6R,7S,7aR)-3-but-3-enyl-7-(3-chloro-2-fluoro-phenyl)-6-(4-chloro-2-fluoro-phenyl)-6-cyano-5-(2,2-dimethyl-propyl)-1-oxo-tetrahydro-pyrrolo[1,2-c]imidazol-2-yl]-2-methoxy-benzoic acid]
21 | CC(C)(C)C[C@@H]1N2CN(c3ccc(C(=O)O)c(C(F)(F)F)c3)C(=O)[C@H]2[C@H](c2cccc(Cl)c2F)[C@@]1(C#N)c1ccc(Cl)cc1F [Example 7, 4-[(5S,6R,7S,7aR)-7-(3-chloro-2-fluoro-phenyl)-6-(4-chloro-2-fluoro-phenyl)-6-cyano-5-(2,2-dimethyl-propyl)-1-oxo-tetrahydro-pyrrolo[1,2-c]imidazol-2-yl]-2-trifluoromethyl-benzoic acid]
13 | CC(C)(C)C[C@@H]1N2CN(c3ccc(C(=O)O)cc3O)C(=O)[C@H]2[C@H](c2cccc(Cl)c2F)[C@@]1(C#N)c1ccc(Cl)cc1F [Example 6, 4-[(5S,6R,7S,7aR)-7-(3-chloro-2-fluoro-phenyl)-6-(4-chloro-2-fluoro-phenyl)-6-cyano-5-(2,2-dimethyl-propyl)-1-oxo-tetrahydro-pyrrolo[1,2-c]imidazol-2-yl]-3-hydroxy-benzoic acid]
15 | CC(C)(C)C[C@@H]1N2[C@H](CC3CCCCC3)N(c3ccc(C(=O)O)cc3)C(=O)[C@H]2[C@H](c2cccc(Cl)c2F)[C@@]1(C#N)c1ccc(Cl)cc1F (racemic) [Example 35, rac-4-[(3S,5S,6R,7S,7aR)-7-(3-chloro-2-fluoro-phenyl)-6-(4-chloro-2-fluoro-phenyl)-6-cyano-3-cyclohexylmethyl-5-(2,2-dimethyl-propyl)-1-oxo-tetrahydro-pyrrolo[1,2-c]imidazol-2-yl]-benzoic acid]
